In general, Ki refers to a measure of affinity in units of concentration, obtained from inhibition or displacement. A word on the IC50: it is the concentration that gives 50% inhibition. A low value points to greater potency in that assay. Broadly, the inhibition is the percentage by which the read-out fell short of the control. Low readings indicate a response near the control, high ones a response far below the control.

Drawing on patent publication US12492199B2, “Pyridopyrimidines as histamine H4-receptor inhibitors” (FAES FARMA, S.A., priority 2018, dated 2025), this text covers Ki, IC50 and inhibition for 27 compounds.

Experiment [1] concerns the target human H1 receptor (Homo sapiens (Human), UniProt P35367). Description: H1 Binding assay ([3H]pyrilamine competition, membranes from CHO-K1 cells transfected with human H1 receptor). The settings on record: affinity for human histamine H1 receptor, class symbols; — not defined in key; read-out: ACTIVITY CLASS hH1R (Ki). As for the experimental part: Cetirizine and pyrilamine were supplied by Sigma-Aldrich. Bilastine was synthetized at FAES FARMA facilities (Lamiako-Leioa, Spain), chemical reagents such as Na2HPO4, KH2PO4 or polyvinylpyrrolidone as well as multiscreen microplates (MSFBN6B50) were purchased from Merck Millipore, scintillation liquid (Microscint 20), human H1 membranes (ES-390-M400UA) and ^3H-pirilamina (NET 594) were provided by PerkinElmer.
Affinity for histamine H1-receptor was determined by H1 Binding assay: • Membranes form CHO-K1 cells transfected with human H1 receptor and microplates of 96-well format were used. • For competition studies cell membranes were homogenated in 50 mM phosphate buffer (Na2HPO4 and KH2PO4 mixed to pH 7.4 at 25° C.) and added to the microplate at the concentration of approximately 5 μg/well. […] Non specific binding was defined using 10 μM unlabeled pyrilamine and the total incubation volume was 275 μl per well. • Incubations were performed until gentle agitation at 25° C. for 60 min and concluding with a rapid vacuum filtration using pre-soaked filters (5% polyvinylpyrrolidone). After ten rapid washes with cold wash buffer (50 mM phosphate buffer) the filter plates were dried at room temperature for 30 min. • Finally, scintillation liquid (Microscint 20) was added to the whole microplate in order to measure the radioactivity retained on the filters using an specific scintillation counter (Top Count—NXT). Curve analysis and values of IC50 were determined using Grap Pad Prism program (GraphPad Software, San Diego, USA). • Test compounds were initially evaluated at one concentration (1 μM) and thereafter if significant displacement was observed (>40%) a concentration-response curve was conducted. Each test concentration was measured in triplicate. • As reference compounds pyrilamine, cetirizine and Bilastine were used.

Experiment [2] concerns the target human H4 receptor (Homo sapiens (Human), UniProt Q9H3N8). The experiment can be described thus: H4 Binding assay ([3H]histamine competition, membranes from CHO-K1 cells transfected with human H4 receptor). The note with it: for IC50 / inhibition at 1 µM: histamine H4 receptor binding; for inhibition at 1 µM: compounds initially evaluated at 1 μM. As for the experimental part: Affinity for histamine H4-receptor was determined by H4 Binding assay:
• Membranes from CHO-K1 cells transfected with human H4 receptor and microplates of 96-well format were used. • For competition studies cell membranes were homogenated in Tris-HCl 50 mM, EDTA 5 mM, pH 7.4 and added to the microplate at the concentration of approximately 15 μg/well. […] Non specific binding was defined using 10 μM unlabeled histamine and the total incubation volume was 275 μl per well. • Incubations were performed under gentle agitation at 25° C. for 60 min and concluding with a rapid vacuum filtration using pre-soaked filters (0.5% polyethylenimine). After ten rapid washes with cold wash buffer (50 mM Tris-HCl buffer) the filter plates were dried at room temperature for 30 min. • Finally, scintillation liquid (Microscint 20) was added to the whole microplate in order to measure the radioactivity reattained on the filters using a specific scintillation counter (Top Count—NXT). […] H1 Binding Assay Materials

[3] abbreviates: affinity for human histamine H4 receptor, class symbols, read-out: ACTIVITY CLASS hH4R (Ki).
Setting [4] is: histamine H4 receptor, comparative compounds, read-out: Ki.

SMILES strings stand for the structures. Read-outs that look alike come from different tables or passages of the source.

human H1 receptor, sequence (P35367 whole entry): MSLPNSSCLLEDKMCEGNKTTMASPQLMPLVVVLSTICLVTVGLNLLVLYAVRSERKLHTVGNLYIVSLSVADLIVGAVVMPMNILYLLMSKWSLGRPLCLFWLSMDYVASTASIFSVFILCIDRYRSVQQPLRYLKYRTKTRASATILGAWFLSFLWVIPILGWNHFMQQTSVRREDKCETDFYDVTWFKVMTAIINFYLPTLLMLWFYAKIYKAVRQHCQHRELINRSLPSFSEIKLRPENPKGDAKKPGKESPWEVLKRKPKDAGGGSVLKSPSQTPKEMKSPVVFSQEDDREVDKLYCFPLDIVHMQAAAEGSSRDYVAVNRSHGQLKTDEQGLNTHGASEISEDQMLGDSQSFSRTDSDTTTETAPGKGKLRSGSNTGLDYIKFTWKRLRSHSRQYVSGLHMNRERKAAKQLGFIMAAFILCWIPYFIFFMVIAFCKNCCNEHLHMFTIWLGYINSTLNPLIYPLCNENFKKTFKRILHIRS
human H4 receptor, sequence (Q9H3N8 whole entry): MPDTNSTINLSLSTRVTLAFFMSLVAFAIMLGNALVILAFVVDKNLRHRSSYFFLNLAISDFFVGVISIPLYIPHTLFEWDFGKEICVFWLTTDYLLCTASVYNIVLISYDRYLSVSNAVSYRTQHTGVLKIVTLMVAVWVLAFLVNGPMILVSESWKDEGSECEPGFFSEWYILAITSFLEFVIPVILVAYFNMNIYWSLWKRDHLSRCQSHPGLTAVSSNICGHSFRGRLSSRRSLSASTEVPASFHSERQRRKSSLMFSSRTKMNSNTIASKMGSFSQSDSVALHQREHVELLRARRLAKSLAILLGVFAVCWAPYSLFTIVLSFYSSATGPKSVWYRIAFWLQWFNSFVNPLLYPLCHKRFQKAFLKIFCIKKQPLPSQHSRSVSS

In the case of `CN1CCN(c2nc(NCCS(=O)(=O)c3ccccc3)c3cc(Cl)ncc3n2)CC1` [Example 93, 6-chloro-2-(4-methylpiperazin-1-yl)-N-(2-(phenylsulfonyl)ethyl)pyrido[3,4-d]pyrimidin-4-amine], the Ki was under 1 µM in experiment [1] and under 0.1 µM in experiment [2] (setting [3]). For `CN1CCN(c2nc(NCCS(=O)(=O)N(C)c3ccccc3)c3cc(Cl)ncc3n2)CC1` [Example 17, 2-((6-chloro-2-(4-methylpiperazin-1-yl)pyrido[3,4-d]pyrimidin-4-yl)amino)-N-methyl-N-phenylethane-1-sulfonamide], the Ki in experiment [1] was under 1 µM; in experiment [2] (setting [3]) it was under 0.1 µM.

Consider `Cc1ccc(CNc2nc(N3CCN(C)CC3)nc3cnc(Cl)cc23)s1` [Example 69, 6-chloro-2-(4-methylpiperazin-1-yl)-N-((5-methylthiophen-2-yl)methyl)pyrido[3,4-d]pyrimidin-4-amine], for which the Ki in experiment [1] and in experiment [2] (setting [3]) was under 1 µM each time. As for `CCCc1cc2c(NCc3cccs3)nc(N3CCN(C)CC3)nc2cn1` [Example 49, 2-(4-methylpiperazin-1-yl)-6-propyl-N-(thiophen-2-ylmethyl)pyrido[3,4-d]pyrimidin-4-amine], the Ki in experiment [1] and in experiment [2] (setting [3]) was under 1 µM in each case. On to `Cc1ccsc1CNc1nc(N2CCN(C)CC2)nc2cnc(Cl)cc12` [Example 68, 6-chloro-2-(4-methylpiperazin-1-yl)-N-((3-methylthiophen-2-yl)methyl)pyrido[3,4-d]pyrimidin-4-amine], for which the Ki in experiment [1] and in experiment [2] (setting [3]) was under 1 µM each time. `CN1CCN(c2nc(NCc3cccs3)c3cc(Cl)ncc3n2)CC1` [Example 3, 6-chloro-2-(4-methylpiperazin-1-yl)-N-(thiophen-2-ylmethyl)pyrido[3,4-d]pyrimidin-4-amine]: the values for the inhibition constant (Ki) in experiment [1], in experiment [2] (setting [3]) and in experiment [2] (setting [4]) were under 1 µM, under 0.1 µM and 0.00075 µM, respectively. In addition, in experiment [2], the IC50 was 0.00174 µM. The same compound had an inhibition at 1 µM in experiment [2] of 94%. On to `CC(C)c1cc2c(NCCS(=O)(=O)Nc3ccccc3)nc(N3CCN(C)CC3)nc2cn1` [Example 54, 2-((6-isopropyl-2-(4-methylpiperazin-1-yl)pyrido[3,4-d]pyrimidin-4-yl)amino)-N-phenylethane-1-sulfonamide], for which the values for the Ki in experiment [1] and in experiment [2] (setting [3]) were under 1 µM and under 0.1 µM, respectively. The corresponding values for `Clc1cc2c(NCc3cccs3)nc(N3CCNCC3)nc2cn1` [Example 24, 6-chloro-2-(piperazin-1-yl)-N-(thiophen-2-ylmethyl)pyrido[3,4-d]pyrimidin-4-amine] are under 1 µM and under 0.1 µM. Consider `CN1CCN(c2nc(NCC[S+]([O-])Cc3ccccc3)c3cc(Cl)ncc3n2)CC1` (stereo not shown) [Example 95, N-(2-(benzylsulfinyl)ethyl)-6-chloro-2-(4-methylpiperazin-1-yl)pyrido[3,4-d]pyrimidin-4-amine], for which the Ki is under 1 µM in experiment [1] and under 0.1 µM in experiment [2] (setting [3]).

For the compound `CN1CCN(c2nc(NCCS(=O)(=O)Cc3ccccc3)c3cc(Cl)ncc3n2)CC1` [Example 94, N-(2-(benzylsulfonyl)ethyl)-6-chloro-2-(4-methylpiperazin-1-yl)pyrido[3,4-d]pyrimidin-4-amine], the Ki is under 1 µM in experiment [1] and under 0.1 µM in experiment [2] (setting [3]). Turning to `O=S(=O)(CCNc1nc(N2CCNCC2)nc2cnc(Cl)cc12)N1CCOCC1` [Example 28, 6-chloro-N-(2-(morpholinosulfonyl)ethyl)-2-(piperazin-1-yl)pyrido[3,4-d]pyrimidin-4-amine], the Ki in experiment [2] (setting [3]) was under 0.1 µM. On the same count and under the same terms, to `CN1CCN(c2nc(NCCS(=O)(=O)Nc3ccccc3)c3cc(Cl)ncc3n2)CC1` [Example 16, 2-((6-chloro-2-(4-methylpiperazin-1-yl)pyrido[3,4-d]pyrimidin-4-yl)amino)-N-phenylethane-1-sulfonamide] belongs under 0.1 µM; to `COc1cccc(NS(=O)(=O)CCNc2nc(N3CCN(C)CC3)nc3cnc(Cl)cc23)c1` [Example 80, 2-((6-chloro-2-(4-methylpiperazin-1-yl)pyrido[3,4-d]pyrimidin-4-yl)amino)-N-(3-methoxyphenyl)ethane-1-sulfonamide], under 0.1 µM.

In experiment [2], `CN1CCN(c2nc(NCc3cccs3)c3cnc(Cl)cc3n2)CC1` [Example 3P, reference compound] had an IC50 of 0.889 µM and an inhibition at 1 µM of 68%. The Ki in experiment [2] (setting [4]) was determined as 0.34 µM. Turning to `Cc1ccccc1NS(=O)(=O)CCNc1nc(N2CCN(C)CC2)nc2cnc(Cl)cc12` [Example 73, 2-((6-chloro-2-(4-methylpiperazin-1-yl)pyrido[3,4-d]pyrimidin-4-yl)amino)-N-(o-tolyl)ethane-1-sulfonamide], in experiment [2] (setting [3]), the Ki was under 0.1 µM. For the compound `O=S(=O)(CCNc1nc(N2CCNCC2)nc2cnc(Cl)cc12)Nc1ccccc1` [Example 26, 2-((6-chloro-2-(piperazin-1-yl)pyrido[3,4-d]pyrimidin-4-yl)amino)-N-phenylethane-1-sulfonamide], the inhibition constant Ki in experiment [2] (setting [3]) is under 0.1 µM. Take `Cc1cc2c(NCc3cccs3)nc(N3CCNCC3)nc2cn1` [Example 60, 6-methyl-2-(piperazin-1-yl)-N-(thiophen-2-ylmethyl)pyrido[3,4-d]pyrimidin-4-amine]: the Ki in experiment [1] and in experiment [2] (setting [3]) was under 1 µM in each case. As for `CN1CCN(c2nc(NCCS(=O)(=O)Nc3cccnc3)c3cc(Cl)ncc3n2)CC1` [Example 86, 2-((6-chloro-2-(4-methylpiperazin-1-yl)pyrido[3,4-d]pyrimidin-4-yl)amino)-N-(pyridin-3-yl)ethane-1-sulfonamide], the Ki in experiment [2] (setting [3]) was under 0.1 µM. The same measure, in the same setting: as for `CN1CCN(c2nc(NCCc3cccs3)c3cc(Cl)ncc3n2)CC1` [Example 6, 6-chloro-2-(4-methylpiperazin-1-yl)-N-(2-(thiophen-2-yl)ethyl)pyrido[3,4-d]pyrimidin-4-amine], the figure is under 1 µM. On to `COc1ccccc1NS(=O)(=O)CCNc1nc(N2CCN(C)CC2)nc2cnc(Cl)cc12` [Example 74, 2-((6-chloro-2-(4-methylpiperazin-1-yl)pyrido[3,4-d]pyrimidin-4-yl)amino)-N-(2-methoxyphenyl)ethane-1-sulfonamide], for which the Ki is under 1 µM in experiment [1] and under 0.1 µM in experiment [2] (setting [3]). `CN1CCN(c2nc(NCc3ccco3)c3cc(Cl)ncc3n2)CC1` [Example 4, 6-chloro-N-(furan-2-ylmethyl)-2-(4-methylpiperazin-1-yl)pyrido[3,4-d]pyrimidin-4-amine]: the values for the Ki in experiment [1] and in experiment [2] (setting [3]) were under 1 µM and under 0.1 µM, respectively. For `CN1CCN(c2nc(NCCS(N)(=O)=O)c3cc(Cl)ncc3n2)CC1` [Example 71, 2-((6-chloro-2-(4-methylpiperazin-1-yl)pyrido[3,4-d]pyrimidin-4-yl)amino)ethane-1-sulfonamide], in experiment [2] (setting [3]), the Ki was under 0.1 µM.

Take `Cc1cc(NS(=O)(=O)CCNc2nc(N3CCN(C)CC3)nc3cnc(Cl)cc23)n(C)n1` [Example 90, 2-((6-chloro-2-(4-methylpiperazin-1-yl)pyrido[3,4-d]pyrimidin-4-yl)amino)-N-(1,3-dimethyl-1H-pyrazol-5-yl)ethane-1-sulfonamide]: the Ki in experiment [2] (setting [3]) was under 1 µM. For the compound `Clc1cc2c(NCc3ccco3)nc(N3CCNCC3)nc2cn1` [Example 25, 6-chloro-N-(furan-2-ylmethyl)-2-(piperazin-1-yl)pyrido[3,4-d]pyrimidin-4-amine], the Ki in experiment [1] and in experiment [2] (setting [3]) was under 1 µM in each case. With `Cc1cccc(NS(=O)(=O)CCNc2nc(N3CCN(C)CC3)nc3cnc(Cl)cc23)c1` [Example 79, 2-((6-chloro-2-(4-methylpiperazin-1-yl)pyrido[3,4-d]pyrimidin-4-yl)amino)-N-(m-tolyl)ethane-1-sulfonamide], in experiment [2] (setting [3]), the Ki is under 0.1 µM. `CN1CCN(c2nc(NCc3ncc[nH]3)c3cc(Cl)ncc3n2)CC1` [Example 8, N-((1H-imidazol-2-yl)methyl)-6-chloro-2-(4-methylpiperazin-1-yl)pyrido[3,4-d]pyrimidin-4-amine]: the Ki in experiment [2] (setting [3]) was under 1 µM. The same measure, in the same setting: to `Cc1ccc(NS(=O)(=O)CCNc2nc(N3CCN(C)CC3)nc3cnc(Cl)cc23)cc1` [Example 84, 2-((6-chloro-2-(4-methylpiperazin-1-yl)pyrido[3,4-d]pyrimidin-4-yl)amino)-N-(p-tolyl)ethane-1-sulfonamide] belongs under 0.1 µM.
